As a reminder, the IC50 is the midpoint of a concentration-inhibition curve. A higher IC50 goes with lower potency.

We go through 22 compounds from ChEMBL document CHEMBL3286221, “Design and synthesis of novel 1,2,3-triazole derivatives of coronopilin as anti-cancer compounds” (Eur J Med Chem, 2014).

Structures are written as SMILES.

Format in all cases: functional, cell-based
The test system of test [1] is MCF7. The test is described as follows: Cytotoxicity against human MCF7 cells after 48 hrs by sulforhodamine B assay. Conditions: MCF7, 48 h. In general terms: The SRB assay estimates cell density from bound dye.
For test [2], the system named is HeLa. The test is described as follows: Cytotoxicity against human HeLa cells after 48 hrs by sulforhodamine B assay.
Test [3] is described as follows: Cytotoxicity against human HCT15 cells after 48 hrs by sulforhodamine B assay. Conditions: HCT-15, 48 h.
Test [4] deals with A549. The test is described as follows: Cytotoxicity against human A549 cells after 48 hrs by sulforhodamine B assay. Conditions: A549, 48 h.
Test [5] deals with THP-1. The test is described as follows: Cytotoxicity against human THP1 cells after 48 hrs by sulforhodamine B assay. Conditions: THP-1, 48 h.
For test [6], the system named is PC-3. The experiment in a line: Cytotoxicity against human PC3 cells after 48 hrs by sulforhodamine B assay. Conditions: PC-3, 48 h.

`C=C1C(=O)O[C@@H]2[C@H]1CC[C@H](C)[C@]1(O)[C@@H](n3cc(CNc4ccccc4Br)nn3)CC(=O)[C@@]21C`: the IC50 was 4.2 µM in test [1]; 4.8 µM in test [2]; 20 µM in test [3]; 100 µM in test [4]; 100 µM in test [5].
As to `C=C1C(=O)O[C@@H]2[C@H]1CC[C@H](C)[C@]1(O)[C@@H](n3cc(COc4ccc(C)cc4)nn3)CC(=O)[C@@]21C`, the IC50 in test [1] worked out at 4.2 µM; in test [2], 100 µM; in test [3] it was 39 µM; in test [4], 21 µM; in test [5] it was 26 µM; in test [6] it was 7.6 µM.
In the case of `C=C1C(=O)O[C@@H]2[C@H]1CC[C@H](C)[C@]1(O)[C@@H](n3cc(COc4ccc(C(F)(F)F)cc4)nn3)CC(=O)[C@@]21C`, the IC50 in test [1] worked out at 13 µM; in test [2], 3.5 µM; in test [3], 100 µM; in test [4] it was 3.8 µM; in test [5], 48 µM; in test [6] it was 6.4 µM.
Turning to `O=c1[nH]cc(F)c(=O)[nH]1` [FLUOROURACIL], the results for the IC50 in test [2] and in test [3] were 4.9 µM and 4.5 µM, respectively.
Regarding `C=C1C(=O)O[C@@H]2[C@H]1CC[C@H](C)[C@]1(O)[C@@H](n3cc(COc4ccccc4Br)nn3)CC(=O)[C@@]21C`, the IC50 in test [1] was found to be 3.4 µM; in test [2] it was 4.8 µM; in test [3], 12 µM; in test [4], 8.8 µM; in test [5], 19 µM; in test [6], 5.6 µM.
Regarding `C=C1C(=O)O[C@@H]2[C@H]1CC[C@H](C)[C@]1(O)[C@@H](n3cc(CNc4ccccc4F)nn3)CC(=O)[C@@]21C`, the IC50 turned out to be 5.1 µM in test [1]; 3.7 µM in test [2]; 100 µM in test [3]; 34 µM in test [4]; 3.3 µM in test [6].
For the compound `C=C1C(=O)O[C@@H]2[C@H]1CC[C@H](C)[C@]1(O)[C@@H](n3cc(CNn4ccc5cc(Br)ccc54)nn3)CC(=O)[C@@]21C`, the IC50 in test [1] came out at 4.5 µM; in test [2], 7.2 µM; in test [3] it was 26 µM; in test [4] it was 100 µM.
Regarding `C=C1C(=O)O[C@@H]2[C@H]1CC[C@H](C)[C@]1(O)[C@@H](n3cc(COc4ccc5ccccc5c4)nn3)CC(=O)[C@@]21C`, the IC50 was determined as 24 µM in test [1]; 7.3 µM in test [2]; 20 µM in test [3]; 9 µM in test [4]; 25 µM in test [5]; 3.6 µM in test [6].
As for `C=C1C(=O)O[C@@H]2[C@H]1CC[C@H](C)[C@]1(O)[C@@H](n3cc(COc4ccccc4C)nn3)CC(=O)[C@@]21C`, the half-maximal inhibitory concentration (IC50) was found to be 3.7 µM in test [1]; 8.4 µM in test [2]; 5.5 µM in test [3]; 6.2 µM in test [4]; 3.8 µM in test [5]; 10 µM in test [6].
Regarding `C=C1C(=O)O[C@@H]2[C@H]1CC[C@H](C)[C@]1(O)[C@@H](n3cc(COc4ccc(Br)cc4)nn3)CC(=O)[C@@]21C`, the IC50 in test [1] turned out to be 16 µM; in test [2], 6.5 µM; in test [3] it was 48 µM; in test [4], 14 µM; in test [5], 10 µM; in test [6], 4.7 µM.
In the case of `C=C1C(=O)O[C@@H]2[C@H]1CC[C@H](C)[C@]1(O)[C@@H](n3cc(COc4ccc(Cl)cc4)nn3)CC(=O)[C@@]21C`, the IC50 was determined as 7 µM in test [1]; 3.6 µM in test [2]; 27 µM in test [3]; 4.1 µM in test [4]; 12 µM in test [5]; 5.2 µM in test [6].
Take `C=C1C(=O)O[C@@H]2[C@H]1CC[C@H](C)[C@]1(O)[C@@H](n3cc(COc4ccccc4F)nn3)CC(=O)[C@@]21C`: the half-maximal inhibitory concentration (IC50) came out at 4.3 µM in test [1]; 3.9 µM in test [2]; 23 µM in test [3]; 6.3 µM in test [4]; 25 µM in test [5]; 4.3 µM in test [6].
On to `C=C1C(=O)O[C@@H]2[C@H]1CC[C@H](C)[C@]1(O)[C@@H](n3cc(CNc4ccc(COC(F)(F)F)cc4)nn3)CC(=O)[C@@]21C`, for which the IC50 was determined as 17 µM in test [1], 17 µM in test [2], 100 µM in test [3] and 23 µM in test [4].
On to `C=C1C(=O)O[C@@H]2[C@H]1CC[C@H](C)[C@]1(O)[C@@H](n3cc(COc4ccc(C(C)C)cc4C)nn3)CC(=O)[C@@]21C`, for which the IC50 was 32 µM in test [1]; 6.8 µM in test [2]; 45 µM in test [3]; 21 µM in test [4]; 33 µM in test [5]; 7.5 µM in test [6].
For `C=C1C(=O)O[C@@H]2[C@H]1CC[C@H](C)[C@]1(O)[C@@H](n3cc(CCc4ccccc4)nn3)CC(=O)[C@@]21C`, the IC50 is 16 µM in test [1]; 16 µM in test [2]; 4.3 µM in test [3]; 5.8 µM in test [4]; 100 µM in test [5].
For the compound `C=C1C(=O)O[C@@H]2[C@H]1CC[C@H](C)[C@]1(O)C=CC(=O)[C@@]21C` [PARTHENIN], the IC50 in test [1] amounted to 40.2 µM; in test [3], 35.3 µM; in test [4], 37.6 µM; in test [5], 46.2 µM; in test [6] it was 43.1 µM.
`COc1cccc2c1C(=O)c1c(O)c3c(c(O)c1C2=O)C[C@@](O)(C(=O)CO)C[C@@H]3O[C@H]1C[C@H](N)[C@H](O)[C@H](C)O1` [DOXORUBICIN] returned an IC50 in test [1] of 0.5 µM. This counts as sub-micromolar.
Turning to `C=C1C(=O)O[C@@H]2[C@H]1CC[C@H](C)[C@]1(O)[C@@H](n3cc(CNc4ccccc4OC)nn3)CC(=O)[C@@]21C`, the IC50 in test [1] was determined as 28 µM; in test [2], 28 µM; in test [3], 15 µM; in test [4], 23 µM; in test [5] it was 100 µM.
For the compound `C=C1C(=O)O[C@@H]2[C@H]1CC[C@H](C)[C@]1(O)[C@@H](n3cc(CNc4ccc(F)cc4)nn3)CC(=O)[C@@]21C`, the IC50 amounted to 15 µM in test [1]; 15 µM in test [2]; 6.5 µM in test [3]; 100 µM in test [4]; 100 µM in test [5].
For `C=C1C(=O)O[C@@H]2[C@H]1CC[C@H](C)[C@]1(O)[C@@H](n3cc(CCC)nn3)CC(=O)[C@@]21C`, the IC50 in test [1] is 14 µM; in test [2], 8.4 µM; in test [3] it was 5.5 µM; in test [4], 12 µM; in test [6], 100 µM.
On to `C=C1C(=O)O[C@@H]2[C@H]1CC[C@H](C)[C@]1(O)[C@@H](n3cc(CNc4ccccc4C)nn3)CC(=O)[C@@]21C`, for which the IC50 in test [1] was determined as 15 µM; in test [2], 3.9 µM; in test [3] it was 8.5 µM; in test [4], 23 µM; in test [5] it was 17 µM; in test [6], 4.6 µM.
In turn, `CO[C@@]12[C@H](COC(N)=O)C3=C(C(=O)C(C)=C(N)C3=O)N1C[C@@H]1N[C@@H]12` [MITOMYCIN] came in with a half-inhibitory concentration (IC50) in test [3] of 0.5 µM.
